Data on 60 molecules can be found in patent US20230123334A1, “AMINO LIPID COMPOUND, PREPARATION METHOD THEREFOR, AND APPLICATION THEREOF” (SHENZHEN SHENXIN BIOTECHNOLOGY CO., LTD., priority 2020, published 2023).

The test concerns HEK293 cells. Nature of the test: Preliminary screening as mRNA vectors, EGFP mRNA transfection of HEK293 cells. The class given is cell-based. The following applies: EGFP mRNA 50 ng per well, 96-well plates; percentage of GFP fluorescent cells relative to total number of cells (Hoechst). The method, boiled down:
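HEK293 cells in DMEM plus 10% FBS transfected in 96-well format with 50 ng EGFP mRNA per well; Lipofectamine2000 served as positive control. Read-out is the percentage of GFP-fluorescent cells among total cells, counted by Hoechst nuclear stain.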

`CCCCCCCCCCCCCCCNc1nc(NCCN2CCCCC2)nc(SCCCCCCCCCCC)n1` [Compound D4S11N15]: the “Absolute mRNA transfection efficiency in HEK293 cells” value (“Absolute mRNA transfection efficiency” below) stood at 17.0%.
As for `CCCCCCCCCCCCCCCCNc1nc(NCCN2CCCCC2)nc(SCCCCCCCCCCC)n1` [Compound D4S11N16], the “Absolute mRNA transfection efficiency” value is recorded as 12.3%.
The figure for `CCCCCCCCCCCCCCCCCCNc1nc(NCCN2CCCCC2)nc(SCCCCCCCCCCC)n1` [Compound D4S11N18] is 8.8%; for `CCCCCCCCCCCCSc1nc(NCCCCCC)nc(NCCN2CCCCC2)n1` [Compound D4S12N6] it is 0.9%; for `CCCCCCCCCCCCSc1nc(NCCCCCCC)nc(NCCN2CCCCC2)n1` [Compound D4S12N7] it is 0.5%.
The figure for `CCCCCCCCCCCCSc1nc(NCCCCCCCC)nc(NCCN2CCCCC2)n1` [Compound D4S12N8] is 1.6%; for `CCCCCCCCCCCCSc1nc(NCCCCCCCCC)nc(NCCN2CCCCC2)n1` [Compound D4S12N9] it is 0.7%.
Turning to `CCCCCCCCCCCCSc1nc(NCCCCCCCCCCC)nc(NCCN2CCCCC2)n1` [Compound D4S12N11], the “Absolute mRNA transfection efficiency” value is recorded as 3.7%.
The figure for `CCCCCCCCCCCCNc1nc(NCCN2CCCCC2)nc(SCCCCCCCCCCCC)n1` [Compound D4S12N12] is 2.1%; for `CCCCCCCCCCCCCNc1nc(NCCN2CCCCC2)nc(SCCCCCCCCCCCC)n1` [Compound D4S12N13] it is 1.3%; for `CCCCCCCCCCCCCCCNc1nc(NCCN2CCCCC2)nc(SCCCCCCCCCCCC)n1` [Compound D4S12N15] it is 2.0%.
Under `CCCCCCCCCCCCCCCCNc1nc(NCCN2CCCCC2)nc(SCCCCCCCCCCCC)n1` [Compound D4S12N16] stands 1.3%.
Turning to `CCCCCCCCCCCCCCCCCCNc1nc(NCCN2CCCCC2)nc(SCCCCCCCCCCCC)n1` [Compound D4S12N18], the “Absolute mRNA transfection efficiency” value turned out to be 4.6%.
The figure for `CCCCCCCCCCCCCCSc1nc(NCCCCCC)nc(NCCN2CCCCC2)n1` [Compound D4S14N6] is 3.0%; for `CCCCCCCCCCCCCCSc1nc(NCCCCCCC)nc(NCCN2CCCCC2)n1` [Compound D4S14N7] it is 4.5%; for `CCCCCCCCCCCCCCSc1nc(NCCCCCCCC)nc(NCCN2CCCCC2)n1` [Compound D4S14N8] it is 3.2%.
The figure for `CCCCCCCCCCCCCCSc1nc(NCCCCCCCCC)nc(NCCN2CCCCC2)n1` [Compound D4S14N9] is 4.0%; for `CCCCCCCCCCCCCCSc1nc(NCCCCCCCCCCC)nc(NCCN2CCCCC2)n1` [Compound D4S14N11] it is 3.8%.
Consider `CCCCCCCCCCCCCCSc1nc(NCCCCCCCCCCCC)nc(NCCN2CCCCC2)n1` [Compound D4S14N12], for which the “Absolute mRNA transfection efficiency” value turned out to be 12.6%.
Take `CCCCCCCCCCCCCCSc1nc(NCCCCCCCCCCCCC)nc(NCCN2CCCCC2)n1` [Compound D4S14N13]: the “Absolute mRNA transfection efficiency” value came to 14.5%.
With `CCCCCCCCCCCCCCCNc1nc(NCCN2CCCCC2)nc(SCCCCCCCCCCCCCC)n1` [Compound D4S14N15], the “Absolute mRNA transfection efficiency” value is recorded as 1.7%.
For `CCCCCCCCCCCCCCCCNc1nc(NCCN2CCCCC2)nc(SCCCCCCCCCCCCCC)n1` [Compound D4S14N16], the “Absolute mRNA transfection efficiency” value was found to be 1.4%.
Under `CCCCCCCCCCCCCCCCCCNc1nc(NCCN2CCCCC2)nc(SCCCCCCCCCCCCCC)n1` [Compound D4S14N18] stands 2.2%; under `CCCCCCCCCCCCCCCSc1nc(NCCCCCC)nc(NCCN2CCCCC2)n1` [Compound D4S15N6], 1.3%.
The figure for `CCCCCCCCCCCCCCCSc1nc(NCCCCCCC)nc(NCCN2CCCCC2)n1` [Compound D4S15N7] is 1.2%; for `CCCCCCCCCCCCCCCSc1nc(NCCCCCCCC)nc(NCCN2CCCCC2)n1` [Compound D4S15N8] it is 1.6%.
The figure for `CCCCCCCCCCCCCCCSc1nc(NCCCCCCCCC)nc(NCCN2CCCCC2)n1` [Compound D4S15N9] is 1.8%; for `CCCCCCCCCCCCCCCSc1nc(NCCCCCCCCCCC)nc(NCCN2CCCCC2)n1` [Compound D4S15N11] it is 1.0%.
Consider `CCCCCCCCCCCCCCCSc1nc(NCCCCCCCCCCCC)nc(NCCN2CCCCC2)n1` [Compound D4S15N12], for which the “Absolute mRNA transfection efficiency” value was 1.6%.
The figure for `CCCCCCCCCCCCCCCSc1nc(NCCCCCCCCCCCCC)nc(NCCN2CCCCC2)n1` [Compound D4S15N13] is 0.8%.
Under `CCCCCCCCCCCCCCCNc1nc(NCCN2CCCCC2)nc(SCCCCCCCCCCCCCCC)n1` [Compound D4S15N15] stands 3.5%; under `CCCCCCCCCCCCCCCCNc1nc(NCCN2CCCCC2)nc(SCCCCCCCCCCCCCCC)n1` [Compound D4S15N16], 4.8%; under `CCCCCCCCCCCCCCCCCCNc1nc(NCCN2CCCCC2)nc(SCCCCCCCCCCCCCCC)n1` [Compound D4S15N18], 5.1%.
Under `CCCCCCCCCCCCCCCCSc1nc(NCCCCCC)nc(NCCN2CCCCC2)n1` [Compound D4S16N6] stands 2.6%.
Regarding `CCCCCCCCCCCCCCCCSc1nc(NCCCCCCC)nc(NCCN2CCCCC2)n1` [Compound D4S16N7], the “Absolute mRNA transfection efficiency” value is on record as 0.8%.
The figure for `CCCCCCCCCCCCCCCCSc1nc(NCCCCCCCC)nc(NCCN2CCCCC2)n1` [Compound D4S16N8] is 1.3%; for `CCCCCCCCCCCCCCCCSc1nc(NCCCCCCCCC)nc(NCCN2CCCCC2)n1` [Compound D4S16N9] it is 1.0%.
On to `CCCCCCCCCCCCCCCCSc1nc(NCCCCCCCCCCC)nc(NCCN2CCCCC2)n1` [Compound D4S16N11], for which the “Absolute mRNA transfection efficiency” value was 0.5%.
Regarding `CCCCCCCCCCCCCCCCSc1nc(NCCCCCCCCCCCC)nc(NCCN2CCCCC2)n1` [Compound D4S16N12], the “Absolute mRNA transfection efficiency” value worked out at 0.1%.
For the molecule `CCCCCCCCCCCCCCCCSc1nc(NCCCCCCCCCCCCC)nc(NCCN2CCCCC2)n1` [Compound D4S16N13], the “Absolute mRNA transfection efficiency” value was determined as 0.1%.
Under `CCCCCCCCCCCCCCCCSc1nc(NCCCCCCCCCCCCCCC)nc(NCCN2CCCCC2)n1` [Compound D4S16N15] stands 0.1%.
In the case of `CCCCCCCCCCCCCCCCNc1nc(NCCN2CCCCC2)nc(SCCCCCCCCCCCCCCCC)n1` [Compound D4S16N16], the “Absolute mRNA transfection efficiency” value was 3.6%.
Regarding `CCCCCCCCCCCCCCCCCCNc1nc(NCCN2CCCCC2)nc(SCCCCCCCCCCCCCCCC)n1` [Compound D4S16N18], the “Absolute mRNA transfection efficiency” value turned out to be 6.3%.
Consider `CCCCCCCCCCCCCCCCCCSc1nc(NCCCCCC)nc(NCCN2CCCCC2)n1` [Compound D4S18N6], for which the “Absolute mRNA transfection efficiency” value amounted to 1.5%.
The figure for `CCCCCCCCCCCCCCCCCCSc1nc(NCCCCCCC)nc(NCCN2CCCCC2)n1` [Compound D4S18N7] is 0.3%.
The figure for `CCCCCCCCCCCCCCCCCCSc1nc(NCCCCCCCCC)nc(NCCN2CCCCC2)n1` [Compound D4S18N9] is 0.2%; for `CCCCCCCCCCCCCCCCCCSc1nc(NCCCCCCCCCCC)nc(NCCN2CCCCC2)n1` [Compound D4S18N11] it is 0.9%; for `CCCCCCCCCCCCCCCCCCSc1nc(NCCCCCCCCCCCC)nc(NCCN2CCCCC2)n1` [Compound D4S18N12] it is 0.7%.
The figure for `CCCCCCCCCCCCCCCCCCSc1nc(NCCCCCCCCCCCCC)nc(NCCN2CCCCC2)n1` [Compound D4S18N13] is 0.7%.
On to `CCCCCCCCCCCCCCCCCCSc1nc(NCCCCCCCCCCCCCCC)nc(NCCN2CCCCC2)n1` [Compound D4S18N15], for which the “Absolute mRNA transfection efficiency” value came to 1.6%.
The figure for `CCCCCCCCCCCCCCCCCCSc1nc(NCCCCCCCCCCCCCCCC)nc(NCCN2CCCCC2)n1` [Compound D4S18N16] is 0.4%.
Under `CCCCCCCCCCCCCCCCCCNc1nc(NCCN2CCCCC2)nc(SCCCCCCCCCCCCCCCCCC)n1` [Compound D4S18N18] stands 0.2%.
The figure for `CCCCCCNc1nc(NCCN2CCN(C)CC2)nc(SCCCCCC)n1` [Compound D5S6N6] is 2.1%.
Consider `CCCCCCCNc1nc(NCCN2CCN(C)CC2)nc(SCCCCCC)n1` [Compound D5S6N7], for which the “Absolute mRNA transfection efficiency” value was found to be 4.3%.
Under `CCCCCCCCNc1nc(NCCN2CCN(C)CC2)nc(SCCCCCC)n1` [Compound D5S6N8] stands 5.9%; under `CCCCCCCCCNc1nc(NCCN2CCN(C)CC2)nc(SCCCCCC)n1` [Compound D5S6N9], 2.0%; under `CCCCCCCCCCCNc1nc(NCCN2CCN(C)CC2)nc(SCCCCCC)n1` [Compound D5S6N11], 5.3%.
As for `CCCCCCCCCCCCNc1nc(NCCN2CCN(C)CC2)nc(SCCCCCC)n1` [Compound D5S6N12], the “Absolute mRNA transfection efficiency” value was 4.4%.
For the molecule `CCCCCCCCCCCCCNc1nc(NCCN2CCN(C)CC2)nc(SCCCCCC)n1` [Compound D5S6N13], the “Absolute mRNA transfection efficiency” value is 7.2%.
The figure for `CCCCCCCCCCCCCCCNc1nc(NCCN2CCN(C)CC2)nc(SCCCCCC)n1` [Compound D5S6N15] is 16.4%.
